What was measured:
Assay type in all cases: in vivo
[1] = tested on: Echinochloa oryzicola Vasing.; assay: Herbicidal effect by paddy field pre-emergence treatment; conditions: wettable powder, active ingredient 1000 g/ha, examined at the 21st day from the treatment
Description: (§1) Test For Herbicidal Effect By Paddy Field Pre-Emergence Treatment
(§2) A paddy field soil was filled in a plastic pot of 100 cm^2 and subjected to puddling. Then, seeds of Echinochloa oryzicola Vasing. and Monochoria vaginalis (Murm. f.) Presl var. plantaginea (Roxb.) Solms-Laub. were sowed and water was filled in a depth of 3 cm. Next day, wettable powders produced in accordance with the Formulation 1 were diluted with water and dropped on the water surface. The application amount of each wettable powder was 1,000 g per 1 hectare in terms of the active ingredient. Then, breeding was made in a greenhouse, and the herbicidal effect of each wettable powder was examined at the 21st day from the treatment in accordance with the standard shown in Table 61.

[2] = tested on: Monochoria vaginalis (Murm. f.) Presl var. plantaginea (Roxb.) Solms-Laub.; assay: as above; conditions: wettable powder, active ingredient 1000 g/ha, examined at the 21st day from the treatment
Description: as §1, §2

[3] = tested on: Setaria viridis (L.) Beauv.; assay: Herbicidal effect by upland field pre-emergence treatment; conditions: sprayed on the soil surface, active ingredient 1000 g/ha, examined at the 21st day from the treatment
Description: (§3) Test For Herbicidal Effect By Upland Field Pre-Emergence Treatment An upland field soil was filled in a plastic pot of 80 cm^2. Seeds of Echinochloa crus-galli (L.) Beauv. var. crus-galli and Setaria viridis (L.) Beauv. were sowed, followed by covering with the same soil. Wettable powders produced in accordance with the Formulation 1 were diluted with water and sprayed uniformly on the soil surface using a small sprayer, in an amount of 1,000 liters per 1 hectare so that the amount of each active ingredient became 1,000 g per 1 hectare. Then, breeding was made in a greenhouse, and the herbicidal effect of each wettable powder was examined at the 21st day from the treatment in accordance with the standard shown in Table 61.

[4] = tested on: Echinochloa crus-galli (L.) Beauv. var. crus-galli; assay: as above; conditions: sprayed on the soil surface, active ingredient 1000 g/ha, examined at the 21st day from the treatment
Description: as §3

Cn1nc(C(F)(F)F)c(CS(=O)(=O)C2=NOC(C)(CCl)C2)c1Cl (stereo not shown) [Compound 2, 3-(5-chloro-1-methyl-3-trifluoromethyl-1H-pyrazol-4-ylmethylsulfonyl)-5-chloromethyl-5-methyl-2-isoxazoline]
5: Herbicidal effect index, Echinochloa oryzicola Vasing [1] | Herbicidal effect index, Monochoria vaginalis (Burm. f) Presl Var. plantaginea (Roxb.) Solms-Laub. [2] | Herbicidal effect index, Setaria viridis (L.) Beauv. [3] | Herbicidal effect index, Echinochloa crus-galli (L.) Beauv. Var. crus-galli [4]

From US7875606B2, “Izoxazoline derivative and herbicide” (Ihara Chemical Industry Co., Ltd., priority 2001, dated 2011)
